Laboratory results taken from patent publication US10336761B2, “TGFβ receptor antagonist” (BRISTOL-MYERS SQUIBB COMPANY, priority 2015, dated 2019).

Target: HIS-TGFβR1 T204D (Homo sapiens (Human), UniProt P36897, T204D)
Assay: HTRF probe-displacement assay, HIS-TGFβR1 T204D
Format: binding
Settings: 1 hour at room temperature

HIS-TGFβR1 T204D, sequence (P36897 34-503 T204D): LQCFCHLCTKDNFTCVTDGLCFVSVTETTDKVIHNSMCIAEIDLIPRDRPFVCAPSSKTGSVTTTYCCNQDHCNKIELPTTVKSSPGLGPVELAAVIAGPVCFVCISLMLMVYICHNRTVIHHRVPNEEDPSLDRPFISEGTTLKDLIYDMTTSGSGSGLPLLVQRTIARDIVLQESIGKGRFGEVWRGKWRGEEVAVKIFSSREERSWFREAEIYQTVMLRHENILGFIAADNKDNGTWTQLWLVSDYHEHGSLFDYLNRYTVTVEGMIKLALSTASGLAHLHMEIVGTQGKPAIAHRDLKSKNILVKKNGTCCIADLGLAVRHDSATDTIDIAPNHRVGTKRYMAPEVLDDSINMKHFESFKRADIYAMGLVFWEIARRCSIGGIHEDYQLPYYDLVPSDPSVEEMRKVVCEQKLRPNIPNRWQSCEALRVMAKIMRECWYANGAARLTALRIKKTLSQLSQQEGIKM

Fc1cnccc1Nc1nc(-c2ccccn2)nn2ccc(CNCC3CNC3)c12 [Example 266, N-(5-{[(azetidin-3-ylmethyl)amino]methyl}-2-(pyridin-2-yl)pyrrolo[2,1-f][1,2,4]triazin-4-yl)-3-fluoropyridin-4-amine]
IC50: 10 nM

O[C@@H](CNCc1ccn2nc(-c3ccccn3)nc(Nc3ccncc3F)c12)c1ccccc1 [Example 310, (1R)-2-[({4-[(3-fluoropyridin-4-yl)amino]-2-(pyridin-2-yl)pyrrolo[2,1-f][1,2,4]triazin-5-yl}methyl)amino]-1-phenylethan-1-ol]
IC50: 4 nM

O=C(NCCN1CCS(=O)(=O)CC1)c1cnccc1Nc1nc(-c2cccc(C(F)(F)F)n2)nn2cccc12 [Example 179, N-[2-(1,1-dioxo-1,4-thiomorpholin-4-yl)ethyl]-4-({2-[6-(trifluoromethyl)pyridin-2-yl]pyrrolo[2,1-f][1,2,4]triazin-4-yl}amino)pyridine-3-carboxamide]
IC50: 260 nM

COc1cccc(-c2nc(Nc3ccncc3F)c3cc(NS(=O)(=O)C4CC4)cn3n2)n1 [Example 107, N-{4-[(3-fluoropyridin-4-yl)amino]-2-(6-methoxypyridin-2-yl)pyrrolo[2,1-f][1,2,4]triazin-6-yl}cyclopropanesulfonamide]
IC50: 81 nM

CCOC(=O)CNC(=O)c1cnccc1Nc1nc(-c2cccc(C(F)F)n2)nn2cccc12 [Example 190, Ethyl 2-{[4-({2-[6-(difluoromethyl)pyridin-2-yl]pyrrolo[2,1-f][1,2,4]triazin-4-yl}amino)pyridin-3-yl]formamido}acetate]
IC50: 22 nM

COc1cccc(-c2nc(Nc3ccncc3F)c3c(CCO)ccn3n2)n1 [Example 46, 2-{4-[(3-fluoropyridin-4-yl)amino]-2-(6-methoxypyridin-2-yl)pyrrolo[2,1-f][1,2,4]triazin-5-yl}ethan-1-ol]
IC50: 3 nM

O=C(N[C@H]1CCCC[C@@H]1O)c1cnccc1Nc1nc(-c2cccc(C(F)F)n2)nn2cccc12 [Example 175, 4-({2-[6-(difluoromethyl)pyridin-2-yl]pyrrolo[2,1-f][1,2,4]triazin-4-yl}amino)-N-[(1S,2S)-2-hydroxycyclohexyl]pyridine-3-carboxamide]
IC50: 480 nM

Nc1cccc(-c2nc(Nc3ccncc3F)c3cccn3n2)n1 [Example 53, 2-(6-aminopyridin-2-yl)-N-(3-fluoropyridin-4-yl)pyrrolo[2,1-f][1,2,4]triazin-4-amine]
IC50: 1.6 nM

Cc1nc(-c2nc(Nc3ccnc(NC(=O)C4CC4)c3)c3cccn3n2)ccc1F [Example 345, N-(4-{[2-(5-fluoro-6-methylpyridin-2-yl)pyrrolo[2,1-f][1,2,4]triazin-4-yl]amino}pyridin-2-yl)cyclopropanecarboxamide]
IC50: 1.4 nM

COc1cccc(-c2nc(Nc3ccncc3F)c3cc(/C=C/CCO)cn3n2)n1 [Example 211, (3E)-4-{4-[(3-fluoropyridin-4-yl)amino]-2-(6-methoxypyridin-2-yl)pyrrolo[2,1-f][1,2,4]triazin-6-yl}but-3-en-1-ol]
IC50: 30 nM

CCC(=O)Nc1cc(Nc2nc(-c3cccc(C(F)(F)F)n3)nn3cccc23)ccn1 [Example 313, N-[4-({2-[6-(trifluoromethyl)pyridin-2-yl]pyrrolo[2,1-f][1,2,4]triazin-4-yl}amino)pyridin-2-yl]propanamide]
IC50: 0.89 nM

Cc1cccc(-c2nc(Nc3ccncc3F)c3c(CN4CC[C@H](O)C4)ccn3n2)n1 [Example 252, (3S)-1-({4-[(3-fluoropyridin-4-yl)amino]-2-(6-methylpyridin-2-yl)pyrrolo[2,1-f][1,2,4]triazin-5-yl}methyl)pyrrolidin-3-ol]
IC50: 0.49 nM

O=C(CC(F)(F)F)Nc1cc(Nc2nc(-c3cccc(C(F)(F)F)n3)nn3cccc23)ccn1 [Example 344, 3,3,3-trifluoro-N-[4-({2-[6-(trifluoromethyl)pyridin-2-yl]pyrrolo[2,1-f][1,2,4]triazin-4-yl}amino)pyridin-2-yl]propanamide]
IC50: 5.1 nM

CC(=O)Nc1cc(Nc2nc(-c3cccc(C(F)F)n3)nn3cccc23)c(F)cn1 [Example 225, N-[4-({2-[6-(difluoromethyl)pyridin-2-yl]pyrrolo[2,1-f][1,2,4]triazin-4-yl}amino)-5-fluoropyridin-2-yl]acetamide]
IC50: 5.1 nM

CN1CCC(N(C)Cc2ccn3nc(-c4ccccn4)nc(Nc4ccncc4F)c23)CC1 [Example 279, 3-fluoro-N-(5-{[methyl(1-methylpiperidin-4-yl)amino]methyl}-2-(pyridin-2-yl)pyrrolo[2,1-f][1,2,4]triazin-4-yl)pyridin-4-amine]
IC50: 12 nM

CC(=O)Nc1cc(Nc2nc(-c3ccc(C(F)(F)F)cn3)nn3cccc23)ccn1 [Example 332, N-[4-({2-[5-(trifluoromethyl)pyridin-2-yl]pyrrolo[2,1-f][1,2,4]triazin-4-yl}amino)pyridin-2-yl]acetamide]
IC50: 47 nM

Fc1cnccc1Nc1nc(-c2ccc[nH]2)nn2cccc12 [Example 89, 3-fluoro-N-[2-(1H-pyrrol-2-yl)pyrrolo[2,1-f][1,2,4]triazin-4-yl]pyridin-4-amine]
IC50: 190 nM

Fc1cnccc1Nc1nc(-c2ccccn2)nn2ccc(CNCC3CCCCN3)c12 (stereo not shown) [Example 265, 3-fluoro-N-(5-{[(piperidin-2-ylmethyl)amino]methyl}-2-(pyridin-2-yl)pyrrolo[2,1-f][1,2,4]triazin-4-yl)pyridin-4-amine]
IC50: 6.7 nM

Cc1cccc(-c2nc(Nc3ccncc3C(=O)NCCCN3CCS(=O)(=O)CC3)c3cccn3n2)n1 [Example 36, N-(3-(1,1-dioxidothiomorpholino)propyl)-4-((2-(6-methylpyridin-2-yl)pyrrolo[2,1-f][1,2,4]triazin-4-yl)amino)nicotinamide]
IC50: 3 nM

CCNc1cc(Nc2nc(-c3ccccn3)nn3ccc(CNCC(C)(C)O)c23)ccn1 [Example 258, 1-{[(4-{[2-(ethylamino)pyridin-4-yl]amino}-2-(pyridin-2-yl)pyrrolo[2,1-f][1,2,4]triazin-5-yl)methyl]amino}-2-methylpropan-2-ol]
IC50: 4.5 nM

COc1cccc(-c2nc(Nc3ccnc(NCC(C)(C)O)c3)c3cccn3n2)n1 [Example 133, 1-[(4-{[2-(6-methoxypyridin-2-yl)pyrrolo[2,1-f][1,2,4]triazin-4-yl]amino}pyridin-2-yl)amino]-2-methylpropan-2-ol]
IC50: 3300 nM

CCCNC(=O)c1cnccc1Nc1nc(-c2cccc(C(F)F)n2)nn2cccc12 [Example 184, 4-({2-[6-(difluoromethyl)pyridin-2-yl]pyrrolo[2,1-f][1,2,4]triazin-4-yl}amino)-N-propylpyridine-3-carboxamide]
IC50: 14 nM

CC(=O)Nc1nccc(Nc2nc(-c3cccc(C(F)(F)F)n3)nn3cccc23)c1F [Example 20, N-[3-fluoro-4-({2-[6-(trifluoromethyl)pyridin-2-yl]pyrrolo[2,1-f][1,2,4]triazin-4-yl}amino)pyridin-2-yl]acetamide]
IC50: 80 nM

O=C(NCc1nccs1)c1cnccc1Nc1nc(-c2cccc(C(F)F)n2)nn2cccc12 [Example 183, 4-({2-[6-(difluoromethyl)pyridin-2-yl]pyrrolo[2,1-f][1,2,4]triazin-4-yl}amino)-N-(1,3-thiazol-2-ylmethyl)pyridine-3-carboxamide]
IC50: 44 nM

Fc1cnccc1Nc1nc(-c2ccccn2)nn2ccc(CNc3ccc(-c4cnco4)cc3)c12 [Example 297, 3-fluoro-N-[5-({[4-(1,3-oxazol-5-yl)phenyl]amino}methyl)-2-(pyridin-2-yl)pyrrolo[2,1-f][1,2,4]triazin-4-yl]pyridin-4-amine]
IC50: 71 nM

O=C(NCCCN1CCOCC1)c1cnccc1Nc1nc(-c2cccc(C(F)(F)F)n2)nn2cccc12 [Example 169, N-[3-(morpholin-4-yl)propyl]-4-({2-[6-(trifluoromethyl)pyridin-2-yl]pyrrolo[2,1-f][1,2,4]triazin-4-yl}amino)pyridine-3-carboxamide]
IC50: 45 nM

CC(C)(C)OC(=O)CNC(=O)c1cnccc1Nc1nc(-c2cccc(C(F)F)n2)nn2cccc12 [Example 196, tert-butyl 2-{[4-({2-[6-(difluoromethyl)pyridin-2-yl]pyrrolo[2,1-f][1,2,4]triazin-4-yl}amino)pyridin-3-yl]formamido}acetate]
IC50: 230 nM

COc1cccc(-c2nc(Nc3ccnc(NCC(C)(C)O)c3)c3c(C)ccn3n2)n1 [Example 138, 1-[(4-{[2-(6-methoxypyridin-2-yl)-5-methylpyrrolo[2,1-f][1,2,4]triazin-4-yl]amino}pyridin-2-yl)amino]-2-methylpropan-2-ol]
IC50: 6600 nM

Fc1cnccc1Nc1nc(-c2ccccn2)nn2ccc(CNCCN3CCCCC3)c12 [Example 284, 3-fluoro-N-[5-({[2-(piperidin-1-yl)ethyl]amino}methyl)-2-(pyridin-2-yl)pyrrolo[2,1-f][1,2,4]triazin-4-yl]pyridin-4-amine]
IC50: 4.4 nM

COc1cccc(-c2nc(Nc3ccncc3NC(C)=O)c3cccn3n2)n1 [Example 47, N-(4-{[2-(6-methoxypyridin-2-yl)pyrrolo[2,1-f][1,2,4]triazin-4-yl]amino}pyridin-3-yl)acetamide]
IC50: 180 nM

FC(F)(F)c1cccc(-c2nc(Nc3ccnc(-c4cc[nH]n4)c3)c3cccn3n2)n1 [Example 230, 2-(1H-pyrazol-3-yl)-N-{2-[6-(trifluoromethyl)pyridin-2-yl]pyrrolo[2,1-f][1,2,4]triazin-4-yl}pyridin-4-amine]
IC50: 100 nM

CC(O)CNCc1ccn2nc(-c3ccccn3)nc(Nc3ccncc3F)c12 (stereo not shown) [Example 239, 1-[({4-[(3-fluoropyridin-4-yl)amino]-2-(pyridin-2-yl)pyrrolo[2,1-f][1,2,4]triazin-5-yl}methyl)amino]propan-2-ol]
IC50: 1.2 nM

COc1cccc(-c2nc(Nc3ccnc(F)c3)c3c(C)ccn3n2)n1 [Example 96, 2-fluoro-N-[2-(6-methoxypyridin-2-yl)-5-methylpyrrolo[2,1-f][1,2,4]triazin-4-yl]pyridin-4-amine]
IC50: 650 nM

NC(=O)c1cnccc1Nc1nc(-c2cccc(C(F)F)n2)nn2cccc12 [Example 228, 4-({2-[6-(difluoromethyl)pyridin-2-yl]pyrrolo[2,1-f][1,2,4]triazin-4-yl}amino)pyridine-3-carboxamide]
IC50: 1.6 nM
